# Source: article PMC9221018, “Sulfonamide-Derived Dithiocarbamate Gold(I) Complexes Induce the Apoptosis of Colon Cancer Cells by the Activation of Caspase 3 and Redox Imbalance” (Biomedicines, 2022)
# Read-outs that look alike come from different tables or passages of the source.
# Tests used:
# Caco-2 cells = experiment: MTT cytotoxicity assay in undifferentiated Caco-2 cells; assay type: cell-based, human
# Experimental: (§1) The human Caco-2 cell line (TC7 clone) was kindly provided by Dr. Edith Brot-Laroche (Université Pierre et Marie Curie-Paris 6, UMR S 872, Les Cordeliers, France). Human epithelial fibroblast cells (NHDF-Ad, Lonza®®, Porriño, Spain) were kindly provided by Dr. Gracia Mendoza (Aragon Health Research Institute, IIS Aragón, Spain). Caco-2 cells (passages 40–70) and fibroblasts (passages 10–30) were maintained in a humidified atmosphere of 5% CO2 at 37 °C and grown in medium following the method used by Quero et al.. The Caco-2 cells were sub-cultured in 25 cm^2 plastic flasks at a density of 1.2 × 10^4 cells/cm^2, while the fibroblasts were sub-cultured on 75 cm^2 plastic flasks at a density of 1 × 10^4 cells/cm^2. The culture medium was replaced every 2 days.
# (§2) The gold complexes were diluted in dimethyl sulfoxide (DMSO) as a 10 mM stock solution, and then diluted in cell culture medium at the desired concentrations.
# (§3) For the cytotoxicity screening assays, Caco-2 cells were seeded in 96-well plates at a density of 4 × 10^3 cells/well. The culture medium was replaced with medium containing the drug panel 24 h post-seeding, and the cells were incubated for 24, 48 and 72 h. […] In differentiated Caco-2 and fibroblasts, culture medium containing metal gold complexes was added 15 days post-seeding, and the cells were incubated for 72 h. The antiproliferative effect was measured using an MTT assay, as previously described by Mármol et al.. The absorbance at 540/620 nm was measured using a SPECTROstar Nano (BMG Labtech, Ortenberg, Germany). In order to determine the selectivity index (SI), the IC50 value of the differentiated Caco-2 cells was divided by IC50 value in undifferentiated Caco-2, obtaining the ratio of the normal/cancerous cells’ toxicity.
# [1] = n-octanol-water distribution coefficient, shake-flask method; assay type: physicochemical; details: n-octanol/buffered saline pH 7.4, shake-flask
# Experimental: The n-octanol−water coefficients of the complexes were determined using a shake-flask method, as reported previously. Briefly, 100 mL buffered-saline (0.15 M NaCl, 10 mM phosphate [PO4^3−] buffer, pH 7.4) and 100 mL n-octanol were shaken for 72 h. The addition of 1 mg of the complexes followed by the centrifugation and separation of both phases gave two solutions, which were analysed by UV absorbance spectroscopy to determine their concentration in each phase. The corresponding value of log P was defined as log{[compound(organic)]/[compound(aqueous)]}.
# [2] = system: differentiated Caco-2 cells; experiment: MTT cytotoxicity assay in differentiated Caco-2 cells (healthy cell model); assay type: cell-based, human; details: for decrease of cell viability: complexes at their IC50 (1 1.14 μM, 3 1.7 μM, 8 7.22 μM, 9 8.56 μM), 72 h; for IC50: treatment for 72 h
# Experimental: as §1, §2, §3
# [3] = system: Human epithelial fibroblast cells (NHDF-Ad); experiment: MTT viability assay in human epithelial fibroblasts; assay type: cell-based; details: complexes at their IC50 (1 1.14 μM, 3 1.7 μM, 8 7.22 μM, 9 8.56 μM), 72 h
# Experimental: as §1, §2, §3
# [4] = treatment for 72 h, read-out: IC50
# [5] = 24 h incubation, read-out: IC50 24 h
# [6] = 48 h incubation, read-out: IC50 48 h
# [7] = 72 h incubation, read-out: IC50 72 h
Compound,IC50 (Caco-2 cells; [4]),Log P7.4 [1],IC50 (Caco-2 cells; [5]),IC50 (Caco-2 cells; [6]),IC50 (Caco-2 cells; [7]),decrease of cell viability [2],IC50 [2],decrease of cell viability [3]
"Cc1ccc(S(=O)(=O)NC(=S)[S][Au][PH](c2cccc(S(=O)(=O)[O-])c2)(c2cccc(S(=O)(=O)[O-])c2)c2cccc(S(=O)(=O)[O-])c2)cc1.[Na+].[Na+].[Na+] [Complex 5, [Au(S2CNHSO2-p-Me-C6H4)(TPPTS)]]",31.8 ± 6.05 µM,−0.78,,,,,,
"C#CCn1ccn(C)[c]1=[Au-].O=S(=O)(NC(=S)[S-])c1ccccc1 [Complex 7, [Au(S2CNHSO2C6H5)(IMePropargyl)]]",33.3 ± 5.01 µM,0.35,,,,,,
"C#CCn1ccn(Cc2ccccc2)[c]1=[Au-].O=S(=O)(NC(=S)[S-])c1ccccc1 [Complex 9, [Au(S2CNHSO2C6H5)(IBnPropargyl)]]",8.56 ± 1.68 µM,0.42,31.2 ± 6.85 µM,15.5 ± 1.89 µM,8.56 ± 1.68 µM,approximately 39%,19.5 ± 2.64 µM,approximately 39%
[Au(S2CNHSO2-p-Cl-C6H4)(PPh3)] [Complex 3],1.7 ± 0.15 µM,0.91,2.48 ± 0.14 µM,1.51 ± 0.1 µM,1.7 ± 0.15 µM,did not compromise the viability,14.3 ± 0.19 µM,did not compromise the viability
[Au(S2CNHSO2-p-Cl-C6H4)(TPPTS)] [Complex 6],33.7 ± 2.74 µM,−0.83,,,,,,
[Au(S2CNHSO2-p-Me-C6H4)(IBnPropargyl)] [Complex 10],13.2 ± 3.34 µM,,,,,,,
[Au(S2CNHSO2-p-Me-C6H4)(PPh3)] [Complex 2],1.25 ± 0.35 µM,0.71,,,,,,
[Au(S2CNHSO2C6H5)(TPPTS)] [Complex 4],46.7 ± 5.61 µM,−0.40,,,,,,
